The test system of this experiment is Influenza A virus. It is filed as functional, organism-based.

The compound `CC(=O)c1cc(C)c(O)c(Cc2[nH]c3ccccc3c2Cc2c(O)c(C)cc(C(C)=O)c2O)c1O` gave a 50% inhibitory concentration (IC50) above 42 µg/mL.

The values are drawn from ChEMBL document CHEMBL4619773, “Chemoreactive-Inspired Discovery of Influenza A Virus Dual Inhibitor to Block Hemagglutinin-Mediated Adsorption and Membrane Fusion” (J Med Chem, 2020).
